According to US20210052701A1, “Methods of Treating Vascular Leakage Using CXCL12 Peptides” (The Medical College of Wisconsin, Inc., priority 2018, published 2021):
Where no end group is shown, it is not given here. [ ]: non-standard residue; d: D form. sY = N[C@@H](Cc1ccc(OS(=O)(=O)O)cc1)C(=O)O

Tests used:
CXCL12 = CXCL12 (Homo sapiens, UniProt P48061); assay: CXCL12 dimerization (biophysical measurements); format: binding; conditions: sulfopeptide bound to the sTyr21 recognition site
Source text: The present invention provides a constitutively monomeric CXCL12 variant (CXCL121) engineered to resist peptide-induced dimerization by maintaining steric repulsion of the chemokine helix. Six short CXCR4 peptides, centered on Tyr7, Tyr12, or Tyr21, were synthesized to study the contributions of individual sulfotyrosines in peptide binding and specificity. Peptides were titrated into CXCL12WT, CXCL122 (a constitutively dimeric variant of CXCL12 containing L36C/A65C mutations), or CXCL121 and the interaction was monitored by 2D NMR. While sulfopeptides encompassing sTyr7 and sTyr12 interacted nonspecifically, an […] Tyr7 peptide induced a new set of chemical shift perturbations in the CXCL12 monomer that were also observed upon binding of the intact CXCR41-38 N-terminal domain.

hPPAEC [1] = assay: Effects of CXCR4 agonists / CXCL12 variants on thrombin-induced impairment of hPPAEC monolayer permeability; format: cell-based, human
Description: FIGS. 3A-3D show effects of CXCL12 and ubiquitin on thrombin-induced impairment of hPPAEC monolayer permeability. hPPAEC were grown to a confluent monolayer on collagen-coated permeable membranes. (A) hPPAEC were pre-treated with vehicle, 100 nM of CXCL12 or ubiquitin for 10 minutes, as indicated, and then exposed to thrombin (50 nM), followed by the addition of FITC-dextran. Vehicle: no thrombin. Endothelial permeability was assessed by measuring the amount of FITC-dextran that permeated through the cell monolayer. No cells: 100% permeability (open circles). RFU: Relative fluorescence units. N=3 in quadruplicate. *: p<0.05 vs. vehicle/thrombin. (B-D) hPPAEC were exposed to 35 nM of thrombin or vehicle. After 10 min, thrombin-exposed cells were treated with vehicle, CXCL12 (50 nM) and/or AMD3100 (10 μM) (B), with vehicle, ubiquitin (50 nM) and/or AMD3100 (10 μM) (C) or with various concentrations of ubiquitin (D) followed by the addition of FITC-dextran. The experimental conditions are indicated. Endothelial permeability was assessed by measuring the amount of FITC-dextran that permeated through the cell monolayer. RFU: Relative fluorescence units. N=3 in quadruplicate. *: p<0.05 vs. thrombin/vehicle (2-way ANOVA/Bonferroni's multiple comparison post hoc test).
(§1) FIGS. 7A-7D show dose-dependent effects of CXCL12α/β, CXCL12 (3-68) and CXCL12 mutants K27A/R41A/R47A, R47E and S-S4V on thrombin-induced impairment of hPPAEC monolayer permeability. hPPAEC cells were grown to a confluent monolayer on collagen-coated permeable membranes. hPPAEC were then exposed to 35 nM of thrombin. After 10 min, thrombin-exposed cells were treated with vehicle or 50 nM (A), 5 nM (B), 0.5 nM (C) or 0.05 nM (D) of the various proteins, as indicated. In (D) 5 nM CXCL12a was used as a positive control. N=3 in quadruplicate.
as §1, with “8A-8D” for “7A-7D”, “CXCL12α, CXCL121” for “CXCL12α/β, CXCL12 (3-68)”, “CXCL122” for “CXCL12 mutants K27A/R41A/R47A, R47E and S-S4V”, “CXCL12α” for “CXCL12a”
FIGS. 9A-9B show inhibition of thrombin-induced hyper-permeability of hPPAEC by CXCL12/CXCL12 variants. % inhibition: % inhibition of thrombin-induced hyperpermeability. Data from FIGS. 7 and 8 at t=255 min. N=3 in quadruplicate. *: p<0.05 vs. CXCL12a (2-way ANOVA/Bonferroni's multiple comparison post hoc test).
(§2) In vitro vascular permeability assays—Permeability assays were obtained from Millipore (ECM642) and performed as per manufacturer's instructions. In brief, 96-well collagen-coated permeability assay plates were pre-hydrated for 15 min, 5×10^5 cells were seeded on each well and grown to a confluent monolayer for 48 hours. Fluorescein isothiocyanate (FITC)-dextran (20 μg/mL) was then added on top of the monolayer and the amount of FITC-dextran that permeated through the monolayer was quantified by measuring fluorescence in a Synergy 2 Multi-mode Microplate Reader (BioTek, Winooski, Vt.) at various time points over a 255 min time period.

hPPAEC [2] = assay: In vitro vascular permeability assay (FITC-dextran), hPPAEC monolayer, CXCR4/ACKR3 ligands without thrombin; format: cell-based, human; conditions: 50 nM ligand for 10 min, then FITC-dextran; no thrombin
Description: FIGS. 1A-1B show expression of CXCR4, ACKR3 and CXCR4:ACKR3 heteromers on hPPAEC and effects of CXCR4/ACKR3 ligands on hPPAEC monolayer permeability. (A) Detection of CXCR4, ACKR3 and CXCR4:ACKR3 heteromers on hPPAEC by PLA. Typical PLA images for the detection of individual receptors and CXCR4:ACKR3 heteromers. Images show merged PLA/40,6-diamidino-2-phenylindole dihydrochloride (DAPI) signals. Ctrl: Omission of one secondary antibody. (B) hPPAEC were grown to a confluent monolayer on collagen-coated permeable membranes. Cells were then exposed to vehicle or 50 nM of CXCR4/ACKR3 ligands for 10 minutes, as indicated, followed by the addition of FITC-dextran. Endothelial permeability was assessed by measuring the amount of FITC-dextran that permeated through the cell monolayer. N=3 in quadruplicate. No cells: 100% permeability, open squares. RFU: Relative fluorescence units. *: p<0.05 vs. vehicle (2-way ANOVA/Bonferroni's multiple comparison post hoc test).
Cells and cell lines—Human primary pulmonary artery endothelial cells (hPPAEC) (ATCC, PCS-100-022) and the human lung microvascular endothelial cell line HULEC-5a (ATCC, CRL-3244) were cultured in vascular cell basal medium (ATCC, PCS-100-030) with endothelial cell growth kit-VEGF (ATCC, PCS-100-041). The HTLA cell line, a HEK293 cell line stably expressing a tTA-dependent luciferase reporter and a β-arrestin2-TEV fusion gene, was generously provided by the laboratory of Dr. Bryan Roth and maintained in high glucose Dulbecco's Modified Eagle's Medium supplemented with 10% (vol/vol) FBS, 1× non-essential amino acids, 100 U/mL penicillin, 100 μg/mL streptomycin, 50 μg/mL hygromycin B, and 2 μg/mL puromycin. All cells were cultured at 37° C., 5% CO2 in a humidified atmosphere.
as §2

HULEC-5a = assay: Effects of CXCL12 and ubiquitin on thrombin-induced impairment of HULEC-5a monolayer permeability; format: cell-based, human; conditions: thrombin 50 nM, after 10 min 50 nM ligand
Description: FIGS. 4A-4D show effects of CXCL12 and ubiquitin on thrombin-induced impairment of HULEC-5a monolayer permeability. (A) HULEC-5a were grown to a confluent monolayer on collagen-coated permeable membranes and then exposed to different concentration of thrombin for 10 min, followed by the addition of FITC-dextran. Endothelial permeability was assessed by measuring the amount of FITC-dextran that permeated through the cell monolayer. No cells: 100% permeability. RFU: Relative fluorescence units. N=3 in quadruplicate. (B) Dose-response curves for thrombin-induced permeability, data from A. 100% permeability=permeability in the absence of HULEC-5a. Open squares: Permeability at t=55 min. Light grey squares: Permeability at t=135 min. Dark grey squares: Permeability at t=255 min. […] Endothelial permeability was assessed by measuring the amount of FITC-dextran that permeated through the cell monolayer. RFU: Relative fluorescence units. […]
as §2, with “In brief, 96-well collagen-coated permeability assay plates were pre-hydrated for 15 min, 5×10^5 cells were seeded on each well and grown to a confluent monolayer for 48 hours.” left out

CXCL12, sequence (P48061 22-89 limits assumed): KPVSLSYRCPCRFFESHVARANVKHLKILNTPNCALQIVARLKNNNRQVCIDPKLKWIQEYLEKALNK

Substance | increase of the CXCL12 dimerization affinity (CXCL12) | effect of pre-treatment on thrombin-induced hyper-permeability of hPPAEC (hPPAEC [1]; 100 nM for 10 min, then thrombin (50 nM)) | effect on thrombin-induced permeability of hPPAEC when added after thrombin (hPPAEC [1]; thrombin 35 nM, after 10 min CXCL12 or ubiquitin 50 nM, AMD3100 10 μM) | effect on thrombin-induced hyper-permeability at various concentrations (hPPAEC [1]; thrombin 35 nM, ubiquitin 30 nM-3 μM after thrombin) | effect on thrombin-induced hyper-permeability, ubiquitin plus AMD3100 (hPPAEC [1]; thrombin 35 nM, ubiquitin 50 nM plus AMD3100 10 μM) | effect on hPPAEC monolayer permeability (hPPAEC [2]) | effect on thrombin-mediated impairment of HULEC-5a barrier function when added after thrombin (HULEC-5a)
sTyr21 sulfopeptide: short CXCR4 peptide centered on sulfated Tyr21 (SGD[sY]DSM) | eight-fold |  |  |  |  |  | 
ubiquitin |  | significantly attenuated thrombin-induced hyper-permeability of hPPAEC | did not modulate thrombin-induced hyper-permeability | did not attenuate thrombin-induced hyper-permeability | did not modulate thrombin-induced hyper-permeability | did not affect hPPAEC permeability | significantly reduced thrombin-mediated impairment of endothelial cell barrier function
